Results: patent publication US7348025B2, “Small particle liposome aerosols for delivery of anticancer drugs” (priority 1999, dated 2008)
Where two headings read alike, the source gives them in different places.

Tests used:
[1] = human, in vivo, po; cited from earlier work
[2] = Phase I clinical trial: 9NC in bronchoalveolar lavage fluid or bronchial aspirate; format: in vivo, human
Experimental: Bronchoscopy was performed by a pulmonologist to obtain either bronchoalveolar lavage (BAL) fluid or bronchial aspirate for quantitation of 9NC. A BAL of the right middle lobe was performed once on volunteering patients at various times after the completion of treatment to study the amount of 9NC retained over time. Concentration of total 9NC in the BAL fluid was corrected for dilution by determining the ration of BUN in the lavage and in a plasma sample taken at the same time (13).

[3] = cited from earlier work
[4] = cited from earlier work; remark: listed apart in the source
[5] = Phase I clinical trial: 9NC plasma pharmacokinetics; format: in vivo, human
Experimental: The purpose of quantitation of 9NC from plasma and bronchoalveolar fluids was to determine systemic absorption from the alveolar-capillary exchange surface. Plasma concentrations of total 9NC and the lactone form were measured. For patients who volunteered for pharmacokinetic studies, blood was obtained at various time pints from the start of the aerosol treatment depending on the cohort. For cohort 1 used in the feasibility study blood was obtained at the end of the first week of treatment. Samples were taken at 0, 0.5, 1, 1.25, 1.5, 2, 3, 5, 7, and 24 hours from the start of the 1-hr aerosol exposure. For all other cohorts, samples were obtained at 0, 2, 5, 8, and 24 hours on days 1 and 5 of weeks 1, 4 and 8 where appropriate. Quantitation was performed either by LC/MS, for cohorts 1 and 2, or by HPLC analysis, for cohorts 3 to 6. 9NC plasma concentrations were calculated from the ratio of 9 NC to CPT as internal standard. Extraction of 9NC and its lactone form was performed using Waters C18 Sep-Pak Light cartridges immediately after separating the plasma by a method similar to that previously described (12). Minimal level of detection of 9NC/ml of plasma was 0.5 ng by LC/MS and 1.0 ng by HPLC.

[6] = cited from earlier work; for T1/2: Human; for Blood or plasma concentration / Time of maximum concentration: in vivo, po
[7] = Tissue distribution of CPT after inhalation of CPT liposome aerosol; format: in vivo, Mouse; details: Mouse, inhaled in liposome aerosol (30 min), 16.2 μg/kg (486 ng/mouse)
Experimental: The final suspension was clear. If precipitation occurred, it was reheated to 50-60° C. The preparation was frozen in liquid nitrogen and lyophilized overnight. For use the material was dissolved in sterile water to the appropriate drug concentration, not exceeding 1.0 mg/ml for either drug. The efficiency of incorporation of drug in the liposomes was examined qualitatively by microscopic examination under polarized light. Unincorporated drug was seen as bi-refringent crystals. The efficiency of incorporation was examined by centrifugation of aqueous suspensions of liposomes on Percoll™ gradients. One-tenth ml of suspension was layered over 2 ml of gradient and centrifuged at 2000 rpm for 25-30 minutes. Liposomes layer at the water-Percoll interface, while unincorporated drug was deposited at the bottom of the tube. Many other lipids may be substituted for DLPC in the formulation and use of liposomes for delivery of drugs by aerosol (26).
The mobile phase was 30% acetonitrile and 70% of 0.1% glacial acetic acid. CPT was detected using the Waters 470 scanning fluorescence detector set to an excitation wavelength of 370 nm and an emission wavelength of 440 nm. […] The data were analyzed with the Waters Millenium software.
The deposited dose was calculated to be 486 ng per mouse. The mean concentrations in lungs and liver were similar with smaller concentrations in the other sites examined. […] Drug was cleared promptly from the lungs so that 15 minutes after stopping nebulization only negligible amounts of drug were present in the lungs. Liver, kidney and spleen had substantial amounts of drug initially which gradually diminished through the one hour of study. […] These studies indicate substantial immediate deposition of drug in the lungs with rapid clearance to the viscera. The amount of drug contributed by absorption from swallowed drug is uncertain.

[8] = test system: human colon carcinoma xenografts (Squires); test: Growth of human colon carcinoma xenografts in nude mice under liposome aerosol; format: in vivo
[9] = cohort 1 (0.26 mg/m^2), plasma, DLPC-9NC aerosol

CC[C@@]1(O)C(=O)OCc2c1cc1n(c2=O)Cc2cc3c([N+](=O)[O-])cccc3nc2-1 [9-NC, 9-nitro-camptothecin]
Another side effect [1]: chemical cystitis with hematuria
Main toxicity profile [1]: hematologic with anemia and neutropenia and gastrointestinal with nausea, vomiting and anorexia
9NC in plasma taken at the same time as BAL ([2]; Subject 1, cycle 1, day 3, 2.1 hr from start of aerosol): 43.2 ng/mL
9NC in BAL fluid ([2]; Subject 1, cycle 1, day 3, 2.1 hr from start of aerosol, cohort 1, 0.26 mg/m^2): 8.2 ng/mL
9NC in plasma taken at the same time as BAL ([2]; Subject 3, cycle 4, day 3, 4.8 hr from start of aerosol): 10.8 ng/mL
9NC in BAL fluid ([2]; Subject 3, cycle 4, day 3, 4.8 hr from start of aerosol, cohort 1, 0.26 mg/m^2): 4.3 ng/mL
9NC in plasma taken at the same time as BAL ([2]; Subject 4, cycle 2, day 4, 3.5 hr from start of aerosol): 34.2 ng/mL
9NC in BAL fluid ([2]; Subject 4, cycle 2, day 4, 3.5 hr from start of aerosol, cohort 1, 0.26 mg/m^2): 25.8 ng/mL
9NC in plasma taken at the same time as the aspirate ([2]; Subject 6, cycle 1, day 4, 1.2 hr from start of aerosol): 36.2 ng/mL
9NC in lung aspirate ([2]; Subject 6, cycle 1, day 4, 1.2 hr from start of aerosol, cohort 1, 0.26 mg/m^2): 60.7 ng/mL
T1/2 ([3]; Dog, single oral dose 1.0 mg/kg (10 mg/dose)): (T1/2 = 6.4 h)
Blood or plasma concentration ([3]; dog, in vivo, po, 1 mg/kg): 19.1 ng/mL
Time of maximum concentration ([3]; dog, in vivo, po, 1 mg/kg): 0.7 h
T1/2 ([4]; Mouse, single oral dose 4.1 mg/kg (0.124 mg/dose)): (T1/2 = 10 h)
Blood or plasma concentration ([4]; mouse, in vivo, po, 4.1 mg/kg): 732 ng/mL
Time of maximum concentration ([4]; mouse, in vivo, po, 4.1 mg/kg): 6 min
Range of peak plasma concentration of total 9NC ([5]; cohort 1 (0.26 mg/m^2), 5 patients, 1-hour DLPC-9NC aerosol, at 2 hr): 13.6 to 58.0 ng/mL
Mean (±SD) peak plasma concentration of total 9NC ([5]; cohort 1 (0.26 mg/m^2), 5 patients, 1-hour DLPC-9NC aerosol, at 2 hr from start, end of first week): 37.7 ± 20.2 ng/mL
T1/2α, mean (±SD) [5, 9]: 1.9 ± 1.4 h
T1/2β, mean (±SD) [5, 9]: 16.4 ± 10.5 h
Peak plasma levels in women compared with men ([5]; human, in vivo): higher
Time for which total 9NC plasma concentrations continued to increase ([5]; human, in vivo): 2 to 3 h
T1/2 ([6]; single oral dose 0.1 mg/kg (7 mg/dose)): (T1/2 = 2.5 h)
T1/2 ([6]; single oral dose 1.0 mg/kg (70 mg/dose)): (T1/2 = 4.9 h)
Blood or plasma concentration ([6]; 0.1 mg/kg): 483 ng/mL
Time of maximum concentration ([6]; 0.1 mg/kg): 3.4 h
Blood or plasma concentration ([6]; 1 mg/kg): 1247 ng/mL
Time of maximum concentration ([6]; 1 mg/kg): 5.3 h
Blood or plasma concentration [7]: 13.9 ng/mL
Increase in tumor size, escalated-dose group versus 77 μg/kg group ([8]; 77 then 153 then 307 μg/kg per day versus 77 μg/kg throughout, differences not statistically significant): slightly less increase in tumor size
Rate of tumor growth versus controls ([8]; day 28, P<0.007, Student t test, 2 tailed): reduced rate of tumor growth
Emaciation of treated mice ([8]; high dose group (up to 307 μg/kg per day)): suggesting drug toxicity
